Laboratory results reported in patent publication US20240247021A1, “CRYSTAL FORMS OF KUDING SAPONIN A COMPOUND, PHARMACEUTICAL COMPOSITION AND USE THEREOF” (SHANGHAI KE PHARMACEUTICAL CO., LTD, priority 2021, published 2024).
Like-named read-outs stand apart in the source and are kept apart here.

Assays:
[1] = Hygroscopicity test by dynamic vapor sorption (DVS); type: physicochemical; details: for Degree of hygroscopicity: criteria of Table 12
Experimental: Dynamic vapor sorption (DVS) is a test method for analyzing the moisture sorption performance of a sample and recording the moisture sorption isotherm, and it determines the stability of a compound by identifying its sorption capacity for moisture. Methods for performing dynamic vapor sorption analysis on the crystals are well known to those skilled in the art. In the present invention, the hygroscopicity of the crystal forms A, C, and J of Kudinoside A is determined by using a dynamic vapor sorption instrument, and the specific measurement conditions are shown in Table 7.
About 10 mg of each of the crystal forms A, C, and J obtained in Examples 1-3 was tested for its hygroscopicity using a dynamic vapor sorption (DVS) instrument (test conditions: a temperature of 25° C. and a relative humidity of 0%-80%), and the hygroscopicity of each crystal form was judged using the criteria shown in Table 12 below. For the steps and the judgment criteria of the hygroscopicity test, reference is made to the General Requirement 9103-Guidelines for Hygroscopicity in Pharmacopoeia of the People's Republic of China 2020 (Volume IV).

[2] = Thermogravimetric analysis (TGA); type: physicochemical; details: 10 K/min, nitrogen
Source text: Thermogravimetric analysis, or TGA for short, refers to a thermal analysis method for measuring the relationship of the mass of a sample to be detected with the change of temperature or time at a programmed temperature, and it is used to study information related to the quality of the sample, such as thermal stability, components of intermediate products possibly generated, etc. It is often used in combination with other thermal analysis methods for comprehensive thermal analysis. Methods for performing thermogravimetric analysis on the crystals are well known to those skilled in the art. In the present invention, the crystal forms A, C, and J of Kudinoside A are determined by using a thermogravimetric analyzer, and the specific measurement conditions are shown in Table 6.

[3] = Competition experiment of crystal form A and crystal form J in water suspension; type: physicochemical; details: equal mixture of crystal forms A and J suspended in water, stirred at room temperature 3 days; XRPD of wet and dry sample
Experimental: Firstly, an initial mixing sample was prepared: samples of the crystal form A and the crystal form J of Kudinoside A with the equivalent quantity were uniformly mixed, and sampling was carried out for XRPD detection.
Water was added to the sample to form a suspension, which was stirred at room temperature and then centrifuged 3 days later, and sampling was carried out for XRPD detection (wet sample); after drying under vacuum at 30° C., the sample was subjected to XRPD detection (dry sample).

[4] = Conditions under which the crystal forms exist stably; type: physicochemical
[5] = DVS, 25° C., relative humidity 0%-80%
[6] = Accelerated test (40 ± 2° C., humidity 75% ± 5%), 0 month
[7] = Accelerated test (40 ± 2° C., humidity 75% ± 5%), 1 month
[8] = Accelerated test (40 ± 2° C., humidity 75% ± 5%), 3 month
[9] = Accelerated test (40 ± 2° C., humidity 75% ± 5%), 4 month
[10] = Accelerated test (40 ± 2° C., humidity 75% ± 5%), 5 month
[11] = Accelerated test (40 ± 2° C., humidity 75% ± 5%), 6 month
[12] = Long-term test 1 (25 ± 2° C., humidity 60% ± 5%), 0 month
[13] = Long-term test 1 (25 ± 2° C., humidity 60% ± 5%), 1 month
[14] = Long-term test 1 (25 ± 2° C., humidity 60% ± 5%), 3 month
[15] = Long-term test 1 (25 ± 2° C., humidity 60% ± 5%), 4 month
[16] = Long-term test 1 (25 ± 2° C., humidity 60% ± 5%), 6 month
[17] = Long-term test 1 (25 ± 2° C., humidity 60% ± 5%), 9 month
[18] = Long-term test 1 (25 ± 2° C., humidity 60% ± 5%), 12 month
[19] = Long-term test 1 (25 ± 2° C., humidity 60% ± 5%), 24 month
[20] = Long-term test 2 (5 ± 3° C.), 0 month
[21] = Long-term test 2 (5 ± 3° C.), 1 month
[22] = Long-term test 2 (5 ± 3° C.), 3 month
[23] = Long-term test 2 (5 ± 3° C.), 4 month
[24] = Long-term test 2 (5 ± 3° C.), 6 month
[25] = Long-term test 2 (5 ± 3° C.), 9 month
[26] = Long-term test 2 (5 ± 3° C.), 12 month
[27] = Long-term test 2 (5 ± 3° C.), 24 month

With C[C@@H]1O[C@@H](O[C@H]2[C@H](O[C@H]3CC[C@]4(C)[C@H]5C[C@H](O)C6=C7[C@]8(CC[C@](C)(OC8=O)[C@@]7(C)O)CC[C@@]6(C)[C@]5(C)CC[C@H]4C3(C)C)OC[C@H](O)[C@@H]2O[C@@H]2O[C@H](CO)[C@@H](O)[C@H](O)[C@H]2O)[C@H](O)[C@H](O)[C@H]1O [crystal form A, Kudinoside A] the “weight change when the relative humidity is in the range of 0%-80%” value ([1]; DVS graph (FIGS. 1d, 2d, 3d)) was “about 12%”, the hygroscopicity ([1]; DVS graph (FIGS. 1d, 2d, 3d), judgment criteria of Table 7) was “hygroscopic” and the “Increase in mass (relative humidity: 0%-80%)” value [1, 5] was 12%. The Degree of hygroscopicity [1, 5] was “hygroscopic”, the Degree of hygroscopicity ([1]; DVS, 25° C., relative humidity 0%-80%, listed as A) was “Hygroscopic (The increase in mass is less than 15% but not less than 2%)” and the decomposition temperature [2] was “about 318 °C”. The crystal form conversion [3] was “tends to convert to the crystal form J”, the “conditions under which the crystal form exists stably” value [4] was “can exist stably as a dry powder at room temperature” and the Appearance [6] was “White”. For the same compound, the “Content of Kudinoside A” value [6] was 100.2 % of the labeled amount, the “Content of impurity F (Kudinoside D)” value [6] was 0.09% and the “Total content of impurities” value [6] was 0.09%. For the same compound, the Appearance [7] was “White”, the “Content of Kudinoside A” value [7] was 101.7 % of the labeled amount and the “Content of impurity F (Kudinoside D)” value [7] was 0.17%. The “Total content of impurities” value [7] was 0.17%, the Appearance [8] was “White” and the “Content of Kudinoside A” value [8] was 99.0 % of the labeled amount. The “Content of impurity F (Kudinoside D)” value [8] was 0.26%, the “Total content of impurities” value [8] was 0.43% and the Appearance [9] was “White”. The “Content of Kudinoside A” value [9] was 98.0 % of the labeled amount, the “Content of impurity F (Kudinoside D)” value [9] was 0.29% and the “Total content of impurities” value [9] was 0.52%. For the same compound, the Appearance [10] was “White”, the “Content of Kudinoside A” value [10] was 98.9 % of the labeled amount and the “Content of impurity F (Kudinoside D)” value [10] was 0.29%. For the same compound, the “Total content of impurities” value [10] was 0.60%, the Appearance [11] was “White” and the “Content of Kudinoside A” value [11] was 98.4 % of the labeled amount. For the same compound, the “Content of impurity F (Kudinoside D)” value [11] was 0.29%, the “Total content of impurities” value [11] was 0.66% and the Appearance [12] was “White”. The “Content of Kudinoside A” value [12] was 100.2 % of the labeled amount, the “Content of impurity F (Kudinoside D)” value [12] was 0.09% and the “Total content of impurities” value [12] was 0.09%. The Appearance [13] was “White”, the “Content of Kudinoside A” value [13] was 101.4 % of the labeled amount and the “Content of impurity F (Kudinoside D)” value [13] was 0.09%. The “Total content of impurities” value [13] was 0.09%, the Appearance [14] was “White” and the “Content of Kudinoside A” value [14] was 100.2 % of the labeled amount. The “Content of impurity F (Kudinoside D)” value [14] was 0.12%, the “Total content of impurities” value [14] was 0.12% and the Appearance [15] was “White”. For the same compound, the “Content of Kudinoside A” value [15] was 99.2 % of the labeled amount, the “Content of impurity F (Kudinoside D)” value [15] was 0.13% and the “Total content of impurities” value [15] was 0.13%. The Appearance [16] was “White”, the “Content of Kudinoside A” value [16] was 98.3 % of the labeled amount and the “Content of impurity F (Kudinoside D)” value [16] was 0.15%. For the same compound, the “Total content of impurities” value [16] was 0.15%, the Appearance [17] was “White” and the “Content of Kudinoside A” value [17] was 98.8 % of the labeled amount. The “Content of impurity F (Kudinoside D)” value [17] was 0.19%, the “Total content of impurities” value [17] was 0.19% and the Appearance [18] was “White”. The “Content of Kudinoside A” value [18] was 99.8 % of the labeled amount, the “Content of impurity F (Kudinoside D)” value [18] was 0.19% and the “Total content of impurities” value [18] was 0.19%. For the same compound, the Appearance [19] was “White”, the “Content of Kudinoside A” value [19] was 100.2 % of the labeled amount and the “Content of impurity F (Kudinoside D)” value [19] was 0.21%. For the same compound, the “Total content of impurities” value [19] was 0.35%, the Appearance [20] was “White” and the “Content of Kudinoside A” value [20] was 100.2 % of the labeled amount. For the same compound, the “Content of impurity F (Kudinoside D)” value [20] was 0.09%, the “Total content of impurities” value [20] was 0.09% and the Appearance [21] was “White”. The “Content of Kudinoside A” value [21] was 101.8 % of the labeled amount, the “Content of impurity F (Kudinoside D)” value [21] was 0.08% and the “Total content of impurities” value [21] was 0.08%. For the same compound, the Appearance [22] was “White”, the “Content of Kudinoside A” value [22] was 99.9 % of the labeled amount and the “Content of impurity F (Kudinoside D)” value [22] was 0.10%. For the same compound, the “Total content of impurities” value [22] was 0.10%, the Appearance [23] was “White” and the “Content of Kudinoside A” value [23] was 99.8 % of the labeled amount. For the same compound, the “Content of impurity F (Kudinoside D)” value [23] was 0.08%, the “Total content of impurities” value [23] was 0.08% and the Appearance [24] was “White”. For the same compound, the “Content of Kudinoside A” value [24] was 98.6 % of the labeled amount, the “Content of impurity F (Kudinoside D)” value [24] was 0.09% and the “Total content of impurities” value [24] was 0.09%. For the same compound, the Appearance [25] was “White”, the “Content of Kudinoside A” value [25] was 99.2 % of the labeled amount and the “Content of impurity F (Kudinoside D)” value [25] was 0.09%. For the same compound, the “Total content of impurities” value [25] was 0.09%, the Appearance [26] was “White” and the “Content of Kudinoside A” value [26] was 99.8 % of the labeled amount. The “Content of impurity F (Kudinoside D)” value [26] was 0.09%, the “Total content of impurities” value [26] was 0.09% and the Appearance [27] was “White”. The “Content of Kudinoside A” value [27] was 101.3 % of the labeled amount, the “Content of impurity F (Kudinoside D)” value [27] was 0.08% and the “Total content of impurities” value [27] was 0.08%.
